The data set is described as follows: Storage stability of budesonide formulations, % recovery (Examples 6 and 8). Particulars: pH between about 3 and about 8, more preferably about 3.5 to about 6. Type of data set: physicochemical. As to the method:
After dilution all samples were sterilized by filtering them through a 0.2 μm Millipore sterile filters and placed in sterile low density polyethylene plastic vials. These formulations were kept in humidity and temperature controlled chambers at 5° C. 25° C./60% RH and 40° C./75% RH (where RH is the relative humidity). The % recovery after 13.5 weeks from time zero is presented for each formulation and storage condition, in the following table: […]
The formulations described in Examples 6 and 7 were also prepared using lower buffer concentrations of 10 mM, 5 mM, and 1 mM with similar stability results.

Each structure is given as a SMILES string.

Regarding `CCCC1O[C@@H]2C[C@H]3[C@@H]4CCC5=CC(=O)C=C[C@]5(C)[C@H]4[C@@H](O)C[C@]3(C)[C@]2(C(=O)CO)O1` (stereo partly shown) [Budesonide, budesonide], the “stability of aqueous compositions at lower pH ranges” value is “superior stability”.

(Values after patent publication US8466134B1, “Aqueous compositions containing corticosteroids for nasal and pulmonary delivery” (Athena Neurosciences, Inc., priority 1998, dated 2013).)
